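Five concentrations, 48 hours, 96-well plates. The concentration for 50% growth inhibition is given as GI50. The concentration for full growth arrest is given as TGI.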
Key:
Test in all cases: inhibition of tumour cell growth, NCI panel, 48 h
786-0 renal = tested on: 786-0 renal
A498 renal = tested on: A498 renal
A549 NSCLC = tested on: A549 NSCLC
ACHN renal = tested on: ACHN renal
BT-549 breast = tested on: BT-549 breast
CAKI-1 renal = tested on: CAKI-1 renal
CCRF-CEM leukemia = tested on: CCRF-CEM leukemia
COLO 205 colon = tested on: COLO 205 colon
DU-145 prostate = tested on: DU-145 prostate
EKVX NSCLC = tested on: EKVX NSCLC
HCC-2998 colon = tested on: HCC-2998 colon
HCT-116 colon = tested on: HCT-116 colon
HCT-15 colon = tested on: HCT-15 colon
HL-60(TB) leukemia = tested on: HL-60(TB) leukemia
HOP-62 NSCLC = tested on: HOP-62 NSCLC
HOP-92 NSCLC = tested on: HOP-92 NSCLC
HS 578T breast = tested on: HS 578T breast
HT29 colon = tested on: HT29 colon
IGROV1 ovarian = tested on: IGROV1 ovarian
K-562 leukemia = tested on: K-562 leukemia
KM12 colon = tested on: KM12 colon
LOX IMVI melanoma = tested on: LOX IMVI melanoma
M14 melanoma = tested on: M14 melanoma
MALME-3M melanoma = tested on: MALME-3M melanoma
MCF7 breast = tested on: MCF7 breast
MDA-MB-231 breast = tested on: MDA-MB-231 breast
MDA-MB-435 = tested on: MDA-MB-435
MOLT-4 leukemia = tested on: MOLT-4 leukemia
NCI-H226 lung = tested on: NCI-H226 lung
NCI-H23 lung = tested on: NCI-H23 lung
NCI-H460 lung = tested on: NCI-H460 lung
NCI-H522 lung = tested on: NCI-H522 lung
NCI/ADR-RES ovarian = tested on: NCI/ADR-RES ovarian
OVCAR-3 ovarian = tested on: OVCAR-3 ovarian
OVCAR-4 ovarian = tested on: OVCAR-4 ovarian
OVCAR-5 ovarian = tested on: OVCAR-5 ovarian
OVCAR-8 ovarian = tested on: OVCAR-8 ovarian
PC-3 prostate = tested on: PC-3 prostate
RPMI-8226 leukemia = tested on: RPMI-8226 leukemia
RXF 393 renal = tested on: RXF 393 renal
SF-268 CNS = tested on: SF-268 CNS
SF-295 CNS = tested on: SF-295 CNS
SF-539 CNS = tested on: SF-539 CNS
SK-MEL-2 melanoma = tested on: SK-MEL-2 melanoma
SK-MEL-28 melanoma = tested on: SK-MEL-28 melanoma
SK-MEL-5 melanoma = tested on: SK-MEL-5 melanoma
SK-OV-3 ovarian = tested on: SK-OV-3 ovarian
SN12C renal = tested on: SN12C renal
SNB-19 CNS = tested on: SNB-19 CNS
SNB-75 CNS = tested on: SNB-75 CNS
SR leukemia = tested on: SR leukemia
SW-620 colon = tested on: SW-620 colon
T-47D breast = tested on: T-47D breast
TK-10 renal = tested on: TK-10 renal
U251 CNS = tested on: U251 CNS
UACC-257 melanoma = tested on: UACC-257 melanoma
UACC-62 melanoma = tested on: UACC-62 melanoma
UO-31 renal = tested on: UO-31 renal

CSc1ccc(/C(=N/N=C(N)N)c2ccc(Cl)cc2)cc1
GI50 (786-0 renal): 754 nM
TGI (786-0 renal): 2350 nM
GI50 (A498 renal): 1810 nM
TGI (A498 renal): 4.98 µM
GI50 (A549 NSCLC): 399 nM
TGI (A549 NSCLC): 4.81 µM
GI50 (ACHN renal): 744 nM
TGI (ACHN renal): 4.46 µM
GI50 (BT-549 breast): 1700 nM
TGI (BT-549 breast): 3.35 µM
GI50 (CAKI-1 renal): 536 nM
TGI (CAKI-1 renal): 2980 nM
GI50 (CCRF-CEM leukemia): 375 nM
TGI (CCRF-CEM leukemia): 5.99 µM
GI50 (COLO 205 colon): 298 nM
TGI (COLO 205 colon): 864 nM
GI50 (DU-145 prostate): 468 nM
TGI (DU-145 prostate): 4.24 µM
GI50 (EKVX NSCLC): 1030 nM
TGI (EKVX NSCLC): 14.7 µM
GI50 (HCC-2998 colon): 333 nM
TGI (HCC-2998 colon): 1160 nM
GI50 (HCT-116 colon): 364 nM
TGI (HCT-116 colon): 1270 nM
GI50 (HCT-15 colon): 340 nM
TGI (HCT-15 colon): 2140 nM
GI50 (HL-60(TB) leukemia): 268 nM
TGI (HL-60(TB) leukemia): 784 nM
GI50 (HOP-62 NSCLC): 569 nM
TGI (HOP-62 NSCLC): 5.66 µM
GI50 (HOP-92 NSCLC): 663 nM
TGI (HOP-92 NSCLC): 5.51 µM
GI50 (HS 578T breast): 1280 nM
TGI (HS 578T breast): 14.9 µM
GI50 (HT29 colon): 332 nM
TGI (HT29 colon): 1130 nM
GI50 (IGROV1 ovarian): 860 nM
TGI (IGROV1 ovarian): 5.86 µM
GI50 (K-562 leukemia): 342 nM
TGI (K-562 leukemia): 1700 nM
GI50 (KM12 colon): 416 nM
TGI (KM12 colon): 4.01 µM
GI50 (LOX IMVI melanoma): 397 nM
TGI (LOX IMVI melanoma): 1520 nM
GI50 (M14 melanoma): 362 nM
TGI (M14 melanoma): 1270 nM
GI50 (MALME-3M melanoma): 869 nM
TGI (MALME-3M melanoma): 2410 nM
GI50 (MCF7 breast): 355 nM
TGI (MCF7 breast): 2060 nM
GI50 (MDA-MB-231 breast): 499 nM
TGI (MDA-MB-231 breast): 3.18 µM
GI50 (MDA-MB-435): 242 nM
TGI (MDA-MB-435): 593 nM
GI50 (MOLT-4 leukemia): 422 nM
TGI (MOLT-4 leukemia): 3.52 µM
GI50 (NCI-H226 lung): 1180 nM
TGI (NCI-H226 lung): 6.4 µM
GI50 (NCI-H23 lung): 617 nM
TGI (NCI-H23 lung): 12 µM
GI50 (NCI-H460 lung): 376 nM
TGI (NCI-H460 lung): 1510 nM
GI50 (NCI-H522 lung): 213 nM
TGI (NCI-H522 lung): 516 nM
GI50 (NCI/ADR-RES ovarian): 748 nM
TGI (NCI/ADR-RES ovarian): 2870 nM
GI50 (OVCAR-3 ovarian): 500 nM
TGI (OVCAR-3 ovarian): 4.13 µM
GI50 (OVCAR-4 ovarian): 1550 nM
TGI (OVCAR-4 ovarian): 13.2 µM
GI50 (OVCAR-5 ovarian): 496 nM
TGI (OVCAR-5 ovarian): 7.27 µM
GI50 (OVCAR-8 ovarian): 607 nM
TGI (OVCAR-8 ovarian): 3.87 µM
GI50 (PC-3 prostate): 447 nM
TGI (PC-3 prostate): 5.22 µM
GI50 (RPMI-8226 leukemia): 456 nM
TGI (RPMI-8226 leukemia): 3.13 µM
GI50 (RXF 393 renal): 509 nM
TGI (RXF 393 renal): 2140 nM
GI50 (SF-268 CNS): 1060 nM
TGI (SF-268 CNS): 6.63 µM
GI50 (SF-295 CNS): 368 nM
TGI (SF-295 CNS): 1570 nM
GI50 (SF-539 CNS): 291 nM
TGI (SF-539 CNS): 935 nM
GI50 (SK-MEL-2 melanoma): 473 nM
TGI (SK-MEL-2 melanoma): 3.84 µM
GI50 (SK-MEL-28 melanoma): 957 nM
TGI (SK-MEL-28 melanoma): 2350 nM
GI50 (SK-MEL-5 melanoma): 949 nM
TGI (SK-MEL-5 melanoma): 2160 nM
GI50 (SK-OV-3 ovarian): 593 nM
TGI (SK-OV-3 ovarian): 14.3 µM
GI50 (SN12C renal): 500 nM
TGI (SN12C renal): 2210 nM
GI50 (SNB-19 CNS): 696 nM
TGI (SNB-19 CNS): 14.2 µM
GI50 (SNB-75 CNS): 380 nM
TGI (SNB-75 CNS): 4.14 µM
GI50 (SR leukemia): 349 nM
TGI (SR leukemia): 2300 nM
GI50 (SW-620 colon): 480 nM
TGI (SW-620 colon): 1960 nM
GI50 (T-47D breast): 558 nM
TGI (T-47D breast): 4.94 µM
GI50 (TK-10 renal): 2830 nM
TGI (TK-10 renal): 12.6 µM
GI50 (U251 CNS): 382 nM
TGI (U251 CNS): 2170 nM
GI50 (UACC-257 melanoma): 891 nM
TGI (UACC-257 melanoma): 2520 nM
GI50 (UACC-62 melanoma): 707 nM
TGI (UACC-62 melanoma): 2420 nM
GI50 (UO-31 renal): 1000 nM
TGI (UO-31 renal): 4.03 µM
